89 molecules from PubChem BioAssay AID732 (Emory University Molecular Libraries Screening Center, 2007) can be followed below.

This assay has as its system in vivo angiogenesis, blood vessel count. As to the kind of experiment: angiogenesis inhibition in living animals, in vivo study, HTS (AID 732).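 Further: zebrafish embryos dosed at one day post fertilization; 0% = reference inhibitor and 100% = plate mean.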 The following applies: stronger effect = lower value;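 tested at 30 µM in the well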.

The structures appear in SMILES notation. Several values for one entry are separate records, joined by “and”; a condition that tells them apart may be missing. Equal values may be shown once. Activity calls are given as the source filed them. How the calls were made is not given here.

Consider `N#CC(=Cc1ccc(O)c(O)c1)C(N)=S`, for which the vessel count % control is 118% (inactive).
Consider `Nc1nc(Cl)nc2c1ncn2[C@@H]1O[C@H](CO)[C@H](O)C1O` (some centres undefined), for which the vessel count % control was 107% (inactive).
To `NC1(C(=O)O)CCCCC1` belongs 110% (inactive); to `Cc1cccc2c(C3=Nc4ccccc4C3=O)c(O)[nH]c12`, 26.6%; to `CN1CCc2cc(O)c(O)cc2C(c2ccccc2)C1` (centres undefined), 107% (inactive).
The result for `CN(C)CCCN1c2ccccc2Sc2ccccc21` reads 93.7% (inactive); that for `C[C@]12C=CC(=O)C=C1CC[C@@H]1C2=CC[C@]2(C)[C@@H](C(=O)CN3CCN(c4cc(N5CCCC5)nc(N5CCCC5)n4)CC3)CC[C@@H]12`, 101% (inactive); that for `N[C@@H](CC(=O)O)C(=O)O`, 94.7% (inactive).
To `NCC(O)c1ccc(O)c(O)c1` (centres undefined) belongs 108% (inactive).
As for `C=CCn1c(=O)c2c(nc(-c3ccc(S(=O)(=O)O)cc3)n2C)n(C)c1=O`, the vessel count % control is 92% (inactive).
To `C[C@]12CC[C@@H]3c4ccc(O)cc4CC[C@H]3[C@@H]1CCC2=O` belongs 111% (inactive).
To `CC(C)[C@@]1(NC(=O)[C@@H]2C[C@@H]3c4cccc5[nH]cc(c45)C[C@H]3N(C)C2)O[C@@]2(O)[C@@H]3CCCN3C(=O)[C@H](Cc3ccccc3)N2C1=O` belongs 118% (inactive).
To `CNCC[C@@H](Oc1ccc(C(F)(F)F)cc1)c1ccccc1` belongs 113% (inactive); to `N#C/C(=C\c1ccc(O)c(O)c1)C(=O)NCc1ccccc1`, 95.6% (inactive).
For the molecule `NCC#Cc1ccccc1`, the vessel count % control was 107% (inactive).
With `NC(N)=NC(N)=Nc1ccccc1`, the vessel count % control is 72.6% (inactive).
The result for `NC(=NCCC[C@H](N)C(=O)O)N[N+](=O)[O-]` reads 96.2% (inactive); that for `CC(C)C(=O)c1c(C(C)C)nn2ccccc12`, 94.7% (inactive); that for `COC(=O)C1=C(C)NC(C)=C(C(=O)OCCN(C)Cc2ccccc2)C1c1cccc([N+](=O)[O-])c1` (centres undefined), 65.5% (inactive).
Turning to `O=C(O)C1CN(CCCP(=O)(O)O)CCN1` (centres undefined), the vessel count % control was 119% (inactive).
To `CCCN1CCC[C@@H]2Cc3nc(N)ncc3C[C@H]21` belongs 107% (inactive); to `N[C@@H](Cn1ccc(=O)[nH]c1=O)C(=O)O`, 102% (inactive); to `NCCCCN=C(N)N`, 106% (inactive).
The result for `N=C(N)c1ccc(N)cc1` reads 114% (inactive).
The result for `COc1cc(C(O)CO)ccc1O` (centres undefined) reads 96.8% (inactive); that for `CC(C)C(=O)Nc1ccc([N+](=O)[O-])c(C(F)(F)F)c1`, 113% (inactive); that for `O=c1c(O)c(-c2cc(O)c(O)c(O)c2)oc2cc(O)cc(O)c12`, 87.9% (inactive).
`CC[N+](C)(C)Cc1ccccc1Br`: the vessel count % control was 116% (inactive).
To `O=c1[nH]c2cc(C(F)(F)F)ccc2n1-c1cc(C(F)(F)F)ccc1O` belongs 91.2% (inactive); to `Cn1c(=O)c2[nH]c(-c3ccc(S(=O)(=O)O)cc3)nc2n(C)c1=O`, 106% (inactive).
To `NCC(CC(=O)O)c1ccc(Cl)cc1` (centres undefined) belongs 100% (inactive).
To `Cc1nccc2c1[nH]c1ccccc12` belongs 86.1% (inactive); to `CC#C[C@]1(O)CC[C@H]2[C@@H]3CCC4=CC(=O)CCC4=C3[C@@H](c3ccc(N(C)C)cc3)C[C@@]21C`, 106% (inactive).
In the case of `NCCC(=O)NCCc1cnc[nH]1`, the vessel count % control is 84.2% (inactive).
To `CC(=O)NBr` belongs 130% (inactive); to `O=c1c(-c2ccc(O)cc2)coc2cc(O)ccc12`, 105% (inactive).
To `COc1ccc2c(c1OC)C(=O)O[C@@H]2[C@H]1c2c(cc3c(c2OC)OCO3)CCN1C` belongs 127% (inactive); to `CNC[C@H](O)c1ccc(O)c(O)c1`, 94% (inactive).
To `N[C@@H](Cc1ccc(F)cc1)C(=O)O` belongs 108% (inactive); to `NNCc1cccc(O)c1`, 85.8% (inactive); to `NC(=O)CC[C@H](N)C(=O)O`, 104% (inactive).
`C[C@]12N[C@H](Cc3ccccc31)c1ccccc12`: the vessel count % control was 85.8% (inactive).
The result for `Cc1cccc2c(-c3[nH]c4ccccc4c3N=O)c(O)[nH]c12` reads 25.1%.
To `C[Se]C[C@H](N)C(=O)O` belongs 103% (inactive); to `Cc1ccccc1C(OCCN(C)C)c1ccccc1` (centres undefined), 108% (inactive).
On to `CCN(CC)CCCC(C)Nc1ccnc2cc(Cl)ccc12` (centres undefined), for which the vessel count % control is 108% (inactive).
The result for `CC(C)(C=O)Cc1cc(C(C)(C)C)c(O)c(C(C)(C)C)c1` reads 98.1% (inactive); that for `COc1cc(OC)c(/C=C2/C(=O)Nc3ccccc32)c(OC)c1`, 44.4% (inactive).
The result for `Nc1ncnc2c1nc(Br)n2C1OC2COP(=O)(O)O[C@@H]2C1O` (some centres undefined) reads 101% (inactive); that for `C#CCn1c(=O)c2c(ncn2C)n(C)c1=O`, 103% (inactive).
On to `NCCc1c[nH]c2ccc(O)cc12`, for which the vessel count % control was 84.5% (inactive).
To `CC(C)(C)c1ccc(S(=O)(=O)/C=C/C#N)cc1` belongs 0% (inactive); to `C[C@@H](NC(=O)/C(C#N)=C/c1ccc(O)c(O)c1)c1ccccc1`, 128% (inactive); to `CC(C)(CO)Cc1cc(C(C)(C)C)c(O)c(C(C)(C)C)c1`, 105% (inactive).
To `NC(=O)COc1c(F)cc(SCCNS(=O)(=O)c2ccccc2)cc1F` belongs 116% (inactive).
For the molecule `CCC(C)N(C)C(=O)c1cc2ccccc2c(-c2ccccc2Cl)n1` (centres undefined), the vessel count % control was 102% (inactive).
The result for `N[C@@H](CCC(=O)N[C@H](CSN=O)C(=O)NCC(=O)O)C(=O)O` reads 97.4% (inactive).
As for `NC[C@H](O)c1ccc(O)c(O)c1`, the vessel count % control was 86.6% (inactive).
To `COc1ccc(CCN)cc1O` belongs 108% (inactive); to `CS(=N)(=O)CC[C@H](N)C(=O)O` (some centres undefined), 99.4% (inactive); to `CCC1(c2ccc(N)cc2)CCC(=O)NC1=O` (centres undefined), 98.8% (inactive).
On to `CCCC(=O)NCCc1c2n(c3ccc(OC)cc13)Cc1ccccc1-2`, for which the vessel count % control is 111% (inactive).
To `CN1CCc2ccccc2Cc2[nH]c3ccccc3c2CC1` belongs 66.8% (inactive); to `O=C1NC(O)=NC1(c1ccccc1)c1ccccc1`, 106% (inactive).
The result for `CCN(CC)C(=O)N[C@@H]1C[C@@H]2c3cccc4[nH]cc(c34)C[C@H]2N(C)C1` reads 111% (inactive); that for `c1cnc2c(c1)ccc1cccnc12`, 0% (inactive); that for `COc1cc2nc(N3CCN(C(=O)c4ccco4)CC3)nc(N)c2cc1OC`, 107% (inactive).
Consider `CC[C@H]1CN2CCc3cc(OC)c(OC)cc3[C@@H]2C[C@@H]1C[C@H]1NCCc2cc(OC)c(OC)cc21`, for which the vessel count % control was 103% (inactive).
In the case of `CN1C2CCC1CC(OC(=O)c1cc(Cl)cc(Cl)c1)C2` (centres undefined), the vessel count % control was 77% (inactive).
As for `CCCN(CCC)[C@H]1CCc2c(F)ccc(O)c2C1`, the vessel count % control is 93.1% (inactive).
The result for `CCOC(=O)C1=C(C)NC(C)=C(C(=O)OC)C1c1cccc(Cl)c1Cl` (centres undefined) reads 56% (inactive); that for `O=C1NC(c2cccc([N+](=O)[O-])c2)=CCN1c1ccccc1O`, 91.3% (inactive); that for `NC/C=C\C(=O)O`, 111% (inactive).
Take `CC1=C(C(=O)O)N2C(=O)[C@@H](NC(=O)C(N)C3=CCC=CC3)[C@H]2SC1` (some centres undefined): the vessel count % control was 98.7% (inactive).
The result for `CC(C)(C)[C@]1(O)CCN2C[C@H]3c4ccccc4CCc4cccc(c43)[C@@H]2C1` reads 71.1% (inactive) and 90% (inactive).
To `CCCCNc1cc(C(=O)O)cc(S(N)(=O)=O)c1Oc1ccccc1` belongs 59.2% (inactive); to `Cc1o[nH]c(=O)c1CC(N)C(=O)O` (centres undefined), 104% (inactive); to `NC(Cc1cccc(-c2ccccc2CP(=O)(O)O)c1)C(=O)O` (centres undefined), 106% (inactive).
`CCCN(CCC)C(=O)C(CCC(=O)O)NC(=O)c1ccccc1` (centres undefined): the vessel count % control was 103% (inactive).
The result for `CSc1nc(N)c2ncn([C@@H]3O[C@H](COP(=O)(O)OP(=O)(O)O)[C@H](O)C3O)c2n1` (some centres undefined) reads 83.5% (inactive); that for `COc1[nH]c2ccc(F)cc2c1C(=O)OCC1CCN(CCNS(C)(=O)=O)CC1`, 99.6% (inactive); that for `CN1C[C@H](C(=O)N[C@]2(C)O[C@@]3(O)[C@@H]4CCCN4C(=O)[C@H](Cc4ccccc4)N3C2=O)C[C@@H]2c3cccc4[nH]cc(c34)C[C@H]21`, 98.7% (inactive).
To `COC(=O)[C@H](NC(=O)c1cc(-c2ccccc2)nc2ccccc12)c1ccccc1` belongs 97.2% (inactive).
The result for `NC(CCP(=O)(O)O)C(=O)O` (centres undefined) reads 88.9% (inactive); that for `NC(=NCCC[C@H](N)C(=O)O)NO`, 99% (inactive); that for `CCn1cc(C(=O)O)c(=O)c2cc3c(cc21)OCO3`, 121% (inactive).
Turning to `Cc1nc(N=Nc2ccc(S(=O)(=O)O)cc2S(=O)(=O)O)c(COP(=O)(O)O)c(C=O)c1O`, the vessel count % control is 110% (inactive).
The result for `CCn1cc(C(=O)O)c(=O)c2cc(F)c(N3CCNC(C)C3)c(F)c21` (centres undefined) reads 89.7% (inactive); that for `CC1(C)CCC=[N+]1[O-]`, 85.7% (inactive).
